Reference: patent US5952307A, “Basic α-aminoalkylphosphonate derivatives” (priority 1997, dated 1999)

Legend:
human thrombin = target: T1, human thrombin (Homo sapiens, UniProt P00734); assay type: biochemical; conditions: Table II; 0.07 μM thrombin, 0.25-42 μM inhibitor, 80 mM Hepes pH 7.5, 428 mM NaCl, 8% DMSO, 25° C.; NI = no inhibition
T1 construct: bovine trypsin, human thrombin
How it was run: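 Irreversible inactivation followed by incubation method at 25 °C: 0.07 μM thrombin with 0.25–42 μM inhibitor in 80 mM Hepes pH 7.5, 428 mM NaCl, 8% DMSO. Residual activity of withdrawn aliquots measured with thioester or 4-nitroanilide substrates; kobs from pseudo-first-order fits.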

factor Xa = target: T2, factor Xa (Homo sapiens, UniProt P00742); experiment: Inactivation rate of factor Xa, incubation method; assay type: biochemical; conditions: Table II; 0.42 μM factor Xa, 66 μM inhibitor, 80 mM Hepes pH 7.5, 428 mM NaCl, 8% DMSO, 25° C.
T2 construct: human thrombin, factor Xa, plasmin
Experimental: Inactivation rates of serine proteases by aryl diesters of peptidyl derivatives of α-aminoalkylphosphonates were measured by the incubation method. An aliquot of inhibitor (25 or 50 μl) in Me2 SO was added to a buffered enzyme solution (0.01-2.3 μM) to initiate the inactivation. Aliquots (50 μl) were withdrawn at various intervals and the residual enzymatic activity was measured. Me2 SO concentration in the reaction mixture was 8-12% (v/v). A 0.1 M HEPES, 0.01 M CaCl2, pH 7.5 buffer was utilized for trypsin and trypsin-like enzymes. A 0.1 M HEPES, 0.5 M NaCl, pH 7.5, was utilized for the other serine proteases. Peptide thioesters or peptide nitroanilides with the appropriate sequences were used as substrates for various serine proteases. All peptide thioesters hydrolysis rates were measured with the assay mixture containing 4,4'-dithiodipyridine {ε324 =19800 M^-1 cm^-1; Grasetti & Murray, Arch. Biochem. Biophys. 1967, 119, 41-48}. Peptide 4-nitroanilide hydrolysis was measured at 410 nm {ε410 =8800 M^-1 cm^-1; Erlanger et al., Arch. Biochem. Biophys. 1961, 95, 271-278}. First order inactivation rate constants (Kobs) were obtained from plots of In vt /vo vs time, and the correlation coefficients were greater then 0.98.
^a Enzyme was incubated with the inhibitor in 250 μL of the proper
NaCl, 0.8 mM Mes, 9% glycerol and 8% DMSO; 0.42 μM factor Xa, 66 μM
inhibitor in an 80 mM Hepes, pH 7.5 buffer containing 428 mM NaCl and 8%
DMSO. Aliquots of 25 μL were withdrawn at various intervals and the
residual enzymatic activity was measured as described in experimental
section. The kobs values were calculated from pseudofirst-order

bovine trypsin = target: T3, bovine trypsin (Bos taurus, UniProt P00760); experiment: Inactivation rate of bovine trypsin, incubation method; assay type: biochemical; conditions: Table II; 0.13 μM trypsin, 0.25-42 μM inhibitor, 80 mM Hepes pH 7.5, 1 mM CaCl2, 8% DMSO, 25° C.; NI = no inhibition
T3 sequence (P00760 24-246): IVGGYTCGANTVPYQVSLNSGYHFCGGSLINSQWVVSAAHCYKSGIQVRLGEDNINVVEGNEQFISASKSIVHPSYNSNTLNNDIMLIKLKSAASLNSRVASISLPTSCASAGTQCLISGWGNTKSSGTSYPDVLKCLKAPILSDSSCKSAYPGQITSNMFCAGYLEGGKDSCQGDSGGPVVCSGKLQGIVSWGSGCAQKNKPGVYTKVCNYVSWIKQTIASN
How it was run: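 Incubation method: trypsin pre-incubated with inhibitor (0.25-42 μM) at 25° C in 80 mM Hepes, 1 mM CaCl2, pH 7.5, 8% DMSO; aliquots withdrawn over time for residual activity on Z-Arg-SBzl thioester with DTNB or 4,4'-dithiodipyridine. Pseudo-first-order kobs from ln vt/vo versus time.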

[1] = Hydrolysis (stability) in human plasma; assay type: in vitro ADME
Excerpt: Furthermore, they show excellent stability in human plasma. For example Suc-Val-Pro-Phe^P (OPh)2 has a hydrolysis half-time in human plasma of about 20 hrs. […] Thus they can be used under a variety of conditions. Phosphonates have the additional advantage of being very stable in plasma and will have a high effectiveness in vivo due to their long lifetimes.

T2 sequence (P00742 235-488 limits assumed): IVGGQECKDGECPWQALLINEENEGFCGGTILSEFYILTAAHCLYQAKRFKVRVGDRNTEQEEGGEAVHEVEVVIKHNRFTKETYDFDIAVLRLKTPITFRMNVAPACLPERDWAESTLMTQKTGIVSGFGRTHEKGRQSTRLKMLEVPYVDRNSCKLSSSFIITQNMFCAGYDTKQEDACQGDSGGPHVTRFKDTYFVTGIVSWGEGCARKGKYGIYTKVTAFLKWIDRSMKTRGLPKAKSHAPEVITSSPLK
T2 sequence (P00742 41-179 partner limits assumed): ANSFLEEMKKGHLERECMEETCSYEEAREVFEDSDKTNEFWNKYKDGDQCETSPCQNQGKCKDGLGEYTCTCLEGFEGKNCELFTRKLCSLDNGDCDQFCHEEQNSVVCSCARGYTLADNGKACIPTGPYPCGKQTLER

SMILES | kobs /[I] human thrombin (human thrombin) | kobs /[I] factor Xa (factor Xa) | kobs /[I] bovine trypsin (bovine trypsin) | hydrolysis half-time in human plasma [1]
CC(C)(C)OC(=O)NC(Cc1ccccc1)C(=O)NCC(=O)NC(c1ccc(C(=N)N)cc1)P(=O)(Oc1ccccc1)Oc1ccccc1 (mixture of isomers) [Boc--D--Phe--Gly-(4-AmPhGly)^P (OPh)2] | 2,225 ± 106 M^-1 s^-1 | 2.8 ± 0 M⁻¹ s⁻¹ | 6,620 ± 835 M^-1 s^-1 | 
CC(C)CC(NC(=O)C(Cc1ccccc1)NC(=O)OC(C)(C)C)C(=O)NC(c1ccc(C(=N)N)cc1)P(=O)(Oc1ccccc1)Oc1ccccc1 (mixture of isomers) [Boc--D--Phe--Leu-(4-AmPhGly)^P (OPh)2] | 921 ± 44 M⁻¹ s⁻¹ | 1.4 ± 0.4 M⁻¹ s⁻¹ | 24 ± 2 M⁻¹ s⁻¹ | 
CC(C)CC(NC(=O)OC(C)(C)C)C(=O)NC(CC(=O)OC(C)(C)C)C(=O)N1CCCC1C(=O)NC(c1ccc(C(=N)N)cc1)P(=O)(Oc1ccccc1)Oc1ccccc1 (mixture of isomers) [Boc--Leu--Asp(O-t-Bu)--Pro-(4-AmPhGly)^P (OPh)2] | 502 ± 21 M⁻¹ s⁻¹ | 8 ± 1 M⁻¹ s⁻¹ | 670 ± 53 M⁻¹ s⁻¹ | 
CC(C)(C)OC(=O)NC(CO)C(=O)NC(c1ccc(C(=N)N)cc1)P(=O)(Oc1ccccc1)Oc1ccccc1 (mixture of isomers) [Boc--Ser-(4-AmPhGly)^P (OPh)2] | 31 ± 2 M⁻¹ s⁻¹ | 3.5 ± 0.4 M⁻¹ s⁻¹ | 20 ± 1 M⁻¹ s⁻¹ | 
N=C(N)c1ccc(C(NC(=O)CNC(=O)C(CCC(=O)O)NC(=O)OCc2ccccc2)P(=O)(Oc2ccccc2)Oc2ccccc2)cc1 (mixture of isomers) [Cbz--Glu--Gly-(4-AmPhGly)^P (OPh)2] | 46 ± 5 M⁻¹ s⁻¹ | 1.4 ± 0.1 M⁻¹ s⁻¹ | 70 ± 5 M⁻¹ s⁻¹ | 
CC(C)CC(N)C(=O)NC(CC(=O)O)C(=O)N1CCCC1C(=O)NC(c1ccc(C(=N)N)cc1)P(=O)(Oc1ccccc1)Oc1ccccc1 (mixture of isomers) [Leu--Asp--Pro-(4-AmPhGly)^P (OPh)2] | 65 ± 1 M⁻¹ s⁻¹ | 1.3 ± 0.2 M⁻¹ s⁻¹ | 204 ± 19 M⁻¹ s⁻¹ | 
CC(C)[C@H](NC(=O)CCC(=O)O)C(=O)N1CCC[C@H]1C(=O)NC(Cc1ccccc1)P(=O)(Oc1ccccc1)Oc1ccccc1 (stereo partly drawn) [Suc-Val-Pro-Phe^P (OPh)2] |  |  |  | about 20 hrs
